Data published in patent US7435837B2, “Dihydrobenzofuranyl alkanamine derivatives and methods for using same” (Wyeth, priority 2003, dated 2008).

Experiments:
[1] = molecular target: T1, human 5-hydroxytryptamine-2C (h5-HT2C) receptor (Homo sapiens, UniProt P28335); test: [125I]DOI binding to membranes of CHO cells expressing the human 5-HT2C receptor; conditions: [125I]DOI radioligand, CHO cell membranes, room temperature 60 min; read-out: 5-HT2C Affinity Ki
T1 construct: expressed in transfected cells; host or cells: CHO (Chinese Hamster Ovary) cells; membranes
T1 sequence (P28335 33-458): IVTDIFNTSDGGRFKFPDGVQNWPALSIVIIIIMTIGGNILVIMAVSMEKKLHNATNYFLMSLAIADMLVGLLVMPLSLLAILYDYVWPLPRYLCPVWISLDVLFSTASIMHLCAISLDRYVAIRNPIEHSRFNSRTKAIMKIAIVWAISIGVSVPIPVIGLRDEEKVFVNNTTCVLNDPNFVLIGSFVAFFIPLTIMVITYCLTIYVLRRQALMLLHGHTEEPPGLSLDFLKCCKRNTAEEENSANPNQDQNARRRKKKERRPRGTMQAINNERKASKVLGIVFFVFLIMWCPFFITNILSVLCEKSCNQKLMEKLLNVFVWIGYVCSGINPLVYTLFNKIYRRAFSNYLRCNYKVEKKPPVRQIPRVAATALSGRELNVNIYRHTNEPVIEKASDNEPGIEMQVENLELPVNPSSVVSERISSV

human 5-HT2C receptor = molecular target: T2, human 5-HT2C receptor (Homo sapiens, UniProt P28335); test: 5-HT2C receptor-stimulated calcium mobilization (FLIPR) in CHO cells; format: cell-based; conditions: for Emax: CHO, percentage of the response observed with a maximally effective concentration of 5-HT, read-out: 5-HT2C Function Emax (%); for EC50: calcium mobilization, CHO cells stably expressing human 5-HT2C, read-out: 5-HT2C Function EC50;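 for all read-outs here: Fluo-3-AM fluorescence read on FLIPR every 1 s, agonist added after 10 baseline reads, response taken as peak minus lowest raw fluorescence count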
T2 sequence (P28335 33-458): T1 sequence (P28335 33-458)

Compound | Ki [1] | Emax (human 5-HT2C receptor) | EC50 (human 5-HT2C receptor)
NCC1Cc2cccc(Cc3ccccc3)c2O1 (single isomer, unassigned; (+)) [Example 16, (+)-1-(7-benzyl-2,3-dihydro-1-benzofuran-2-yl)methanamine] | 274 nM | 65% | 451 nM
NCC1Cc2cccc(-c3ccc(C(F)(F)F)cc3)c2O1 (racemic) [Example 82, (±)-1 {7-[4-(trifluoromethyl)phenyl]-2,3-dihydro-1-benzofuran-2-yl}methanamine] | 15 nM | 95% | 275 nM
NCC1Cc2cccc(-c3ccc(F)cc3)c2O1 (single isomer, unassigned; (+)) [Example 74, (+)-1-[7-(4-fluorophenyl)-2,3-dihydro-1-benzofuran-2-yl]methanamine] | 3 nM | 100% | 11 nM
Cc1ccccc1-c1cccc2c1CC(CN)O2 (single isomer, unassigned; (+)) [Example 5, (+)-1-[4-(2-methylphenyl)-2,3-dihydro-1-benzofuran-2-yl]methanamine] | 9 nM | 90% | 208 nM
NCC1Cc2cc(F)cc(-c3ccncc3)c2O1 (racemic) [Example 209, (±)-[(5-fluoro-7-pyridin-4-yl-2,3-dihydro-1-benzofuran-2-yl)methyl]amine] | 2.3 nM | 90% | 57 nM
NCC1Cc2cccc(-c3ccccc3F)c2O1 (racemic) [Example 50, (±)-1-[7-(2-fluorophenyl)-2,3-dihydro-1-benzofuran-2-yl]methanamine] | 1 nM | 100% | 14 nM
NCC1Cc2c(F)c(F)cc(-c3ccccc3)c2O1 (racemic) [Example 109, (±)-(4,5-difluoro-7-phenyl-2,3-dihydro-1-benzofuran-2-yl)methylamine] | 25 nM | 40% | 3220 nM
Cc1ccccc1-c1cccc2c1CC(CN)O2 (racemic) [Example 4, (±)-1-[4-(2-methylphenyl)-2,3-dihydro-1-benzofuran-2-yl]methanamine] | 26 nM | 100% | 562 nM
COc1cccc(-c2cccc3c2OC(CN)C3)c1 (racemic) [Example 68, (±)-1-[7-(3-methoxyphenyl)-2,3-dihydro-1-benzofuran-2-yl]methanamine] | 5 nM | 90% | 144 nM
NCC1Cc2cccc(-c3ccccc3C(F)(F)F)c2O1 (single isomer, unassigned; (-)) [Example 54, (−)-1-{7-[2-(trifluoromethyl)phenyl]-2,3-dihydro-1-benzofuran-2-yl}methanamine] | 0.5 nM | 85% | 9 nM
COc1cc2c(c(-c3c(C)cccc3C)c1)OC(CN)C2 (racemic) [Example 374, (±)-{[7-(2,6-dimethylphenyl)-5-methoxy-2,3-dihydro-1-benzofuran-2-yl]methyl}amine] | 0.6 nM | 100% | 19 nM
NCC1Cc2cc(F)cc(-c3cccnc3)c2O1 (racemic) [Example 206, (±)-[(5-fluoro-7-pyridin-3-yl-2,3-dihydro-1-benzofuran-2-yl)methyl]amine] | 1.7 nM | 90% | 4 nM
NCC1Cc2cc(F)cc(-c3c(Cl)cccc3Cl)c2O1 (racemic) [Example 230, (±)-{[7-(2,6-dichlorophenyl)-5-fluoro-2,3-dihydro-1-benzofuran-2-yl]methyl}amine] | 0.6 nM | 90% | 48 nM

Second part, the compound after the results:

Ki [1] | Emax (human 5-HT2C receptor) | EC50 (human 5-HT2C receptor) | Compound
0.4 nM | 100% | 22 nM | Cc1cc2c(c(-c3ccc(F)cc3)c1)OC(CN)C2 (racemic) [Example 291, (±)-{[7-(4-fluorophenyl)-5-methyl-2,3-dihydro-1-benzofuran-2-yl]methyl}amine]
1.8 nM | 100% | 0.8 nM | NCC1Cc2cc(Cl)cc(-c3c(Cl)cccc3Cl)c2O1 (racemic) [Example 263, (±)-{[5-chloro-7-(2,6-dichlorophenyl)-2,3-dihydro-1-benzofuran-2-yl]methyl}amine]
11 nM | 100% | 187 nM | NCC1Cc2cccc(-c3cccc(Cl)c3)c2O1 (racemic) [Example 65, (±)-1-[7-(3-chlorophenyl)-2,3-dihydro-1-benzofuran-2-yl]methanamine]
24 nM | 90% | 16 nM | CNCC1Cc2cc(F)cc(-c3cccnc3)c2O1 (racemic) [Example 459, (±)-[(5-fluoro-7-pyridin-3-yl-2,3-dihydro-1-benzofuran-2-yl)methyl]methylamine]
5 nM | 100% | 557 nM | NCC1Cc2cc(Cl)cc(-c3ccccc3)c2O1 (single isomer, unassigned; (+)) [Example 85, (+)-1-(5-chloro-7-phenyl-2,3-dihydro-1-benzofuran-2-yl)methanamine]
0.5 nM | 90% | 67 nM | Cc1cccc(C)c1-c1cc(Cl)cc2c1OC(CN)C2 (single isomer, unassigned; (-)) [Example 261, (−)-{[5-chloro-7-(2,6-dimethylphenyl)-2,3-dihydro-1-benzofuran-2-yl]methyl}amine]
0.06 nM | 100% | 3 nM | CNCC1Cc2cc(C)cc(-c3cc(Cl)ccc3Cl)c2O1 (single isomer, unassigned; (+)) [Example 487, (+)-{[7-(2,5-dichlorophenyl)-5-methyl-2,3-dihydro-1-benzofuran-2-yl]methyl}methylamine]
0.5 nM | 80% | 71 nM | CNCC1Cc2cc(C)cc(-c3cccc(Cl)c3)c2O1 (racemic) [Example 479, (±)-{[7-(3-chlorophenyl)-5-methyl-2,3-dihydro-1-benzofuran-2-yl]methyl}methylamine]
11 nM | 90% | 8 nM | CNCC1Cc2cc(OC)cc(-c3ccccc3C)c2O1 (racemic) [Example 493, (±)-{[7-(2-methylphenyl)-5-methoxy-2,3-dihydro-1-benzofuran-2-yl]methyl}methylamine]
0.8 nM | 100% | 7 nM | COc1ccccc1-c1cc(C)cc2c1OC(CN)C2 (racemic) [Example 284, (±)-{[7-(2-methoxyphenyl)-5-methyl-2,3-dihydro-1-benzofuran-2-yl]methyl}amine]
86 nM | 80% | 256 nM | CNCC1Cc2cc(OC)cc(-c3cc(C)ccc3C)c2O1 (racemic) [Example 500, (±)-{[7-(2,5-dimethylphenyl)-5-methoxy-2,3-dihydro-1-benzofuran-2-yl]methyl}methylamine]
0.51 nM | 100% | 9 nM | CNCC1Cc2cccc(-c3ccccc3C)c2O1 (racemic) [Example 406, (±)-[(N-methyl-1-[7-(2-methylphenyl)-2,3-dihydro-1-benzofuran-2-yl]methanamine]
1.1 nM | 100% | 3 nM | NCC1Cc2cc(Cl)cc(-c3ccc(Cl)cc3Cl)c2O1 (single isomer, unassigned; (-)) [Example 252, (−)-{[5-chloro-7-(2,4-dichlorophenyl)-2,3-dihydro-1-benzofuran-2-yl]methyl}amine]
